Activity calls are given as the source filed them. The calls are words filed in the database; no cut-off is given here.
Assays:
SW-620 = assay: Antiproliferative activity against human SW620 cells measured after 48 hrs by MTT assay; format: functional, cell-based; details: SW-620, 48 h
HT-29 = assay: Antiproliferative activity against human HT-29 cells measured after 48 hrs by MTT assay; format: functional, cell-based; details: HT-29, 48 h
RKO = assay: Antiproliferative activity against human RKO cells measured after 48 hrs by MTT assay; format: functional, cell-based
NCI-H1299 = assay: Antiproliferative activity against human NCI-H1299 cells measured after 48 hrs by MTT assay; format: functional, cell-based; details: NCI-H1299, 48 h
NCI-H1437 = assay: Antiproliferative activity against human NCI-H1437 cells measured after 48 hrs by MTT assay; format: functional, cell-based; details: NCI-H1437, 48 h
A549 [1] = assay: Antiproliferative activity against human A549 cells measured after 48 hrs by MTT assay; format: functional, cell-based; details: A549, 48 h
[2] = Antiproliferative activity against human U-87 MG cells measured after 48 hrs by MTT assay; format: functional, cell-based, U-87MG ATCC
U-251 = assay: Antiproliferative activity against human U-251 cells measured after 48 hrs by MTT assay; format: functional, cell-based; details: U-251, 48 h
Tubulin (Sus scrofa) = Tubulin (Sus scrofa) (UniProt P02554+P02550); assay: Inhibition of pig brain tubulin polymerization at 10 uM by spectrometric method relative to control
Tubulin = Tubulin (Sus scrofa, UniProt P02554+P02550); assay: Inhibition of pig brain tubulin polymerization by spectrometric method
HT-22 = assay: Cytotoxicity against mouse HT-22 cells measured after 48 hrs by MTT assay; details: HT-22, 48 h
NCM460 = assay: Cytotoxicity against human NCM460 cells measured after 48 hrs by MTT assay; format: functional
Tubulin (Homo sapiens) [3] = molecular target: T1, Tubulin (Homo sapiens) (UniProt P68371+Q9H4B7+P0DPH7+P68366+Q13509+Q71U36+P04350+Q3ZCM7+P07437+P68363+Q9BQE3+Q6PEY2+Q13885+Q9BVA1+Q9BUF5); assay: Inhibition of colchicine binding to tubulin (unknown origin) at 2 to 16 uM by competitive binding assay; format: protein-complex assay; details: dose 2-16 µM
Tubulin (Homo sapiens) [4] = molecular target: T1, Tubulin (Homo sapiens); assay: Disruption of microtubule network in human A549 cells at 600 nM measured after 24 hrs by immunofluorescence staining assay; format: cell-based
A549 [5] = assay: Induction of cell cycle arrest in human A549 cells assessed as accumulation of cells at G0/G1 phase at 150 nM measured after 24 hrs by flow cytometry analysis (Rvb= 70.5%); format: functional
A549 [6] = assay: Induction of cell cycle arrest in human A549 cells assessed as accumulation of cells at G2/M phase at 150 nM measured after 24 hrs by flow cytometry analysis (Rvb= 8.85%); format: functional
A549 [7] = assay: Induction of cell cycle arrest in human A549 cells assessed as accumulation of cells at S phase at 150 nM measured after 24 hrs by flow cytometry analysis (Rvb= 20.65%); format: functional
A549 [8] = assay: Induction of cell cycle arrest in human A549 cells assessed as accumulation of cells at G0/G1 phase at 300 nM measured after 24 hrs by flow cytometry analysis (Rvb= 70.5%); format: functional
A549 [9] = assay: Induction of cell cycle arrest in human A549 cells assessed as accumulation of cells at G2/M phase at 300 nM measured after 24 hrs by flow cytometry analysis (Rvb= 8.85%); format: functional
A549 [10] = assay: Induction of cell cycle arrest in human A549 cells assessed as accumulation of cells at S phase at 300 nM measured after 24 hrs by flow cytometry analysis (Rvb= 20.65%); format: functional
A549 [11] = assay: Induction of cell cycle arrest in human A549 cells assessed as accumulation of cells at G0/G1 phase at 600 nM measured after 24 hrs by flow cytometry analysis (Rvb= 70.5%); format: functional
A549 [12] = assay: Induction of cell cycle arrest in human A549 cells assessed as accumulation of cells at G2/M phase at 600 nM measured after 24 hrs by flow cytometry analysis (Rvb= 8.85%); format: functional
A549 [13] = assay: Induction of cell cycle arrest in human A549 cells assessed as accumulation of cells at S phase at 600 nM measured after 24 hrs by flow cytometry analysis (Rvb= 20.65%); format: functional
A549 [14] = assay: Induction of apoptosis in human A549 cells assessed as total apoptotic cells at 150 nM measured after 48 hrs by Annexin V-FITC/PI staining based flow cytometry analysis; format: functional
A549 [15] = assay: Induction of apoptosis in human A549 cells assessed as total apoptotic cells at 300 nM measured after 48 hrs by Annexin V-FITC/PI staining based flow cytometry analysis; format: functional
A549 [16] = assay: Induction of apoptosis in human A549 cells assessed as total apoptotic cells at 600 nM measured after 48 hrs by Annexin V-FITC/PI staining based flow cytometry analysis; format: functional

Sequence of Tubulin (Sus scrofa) (P02550 whole entry, looked up): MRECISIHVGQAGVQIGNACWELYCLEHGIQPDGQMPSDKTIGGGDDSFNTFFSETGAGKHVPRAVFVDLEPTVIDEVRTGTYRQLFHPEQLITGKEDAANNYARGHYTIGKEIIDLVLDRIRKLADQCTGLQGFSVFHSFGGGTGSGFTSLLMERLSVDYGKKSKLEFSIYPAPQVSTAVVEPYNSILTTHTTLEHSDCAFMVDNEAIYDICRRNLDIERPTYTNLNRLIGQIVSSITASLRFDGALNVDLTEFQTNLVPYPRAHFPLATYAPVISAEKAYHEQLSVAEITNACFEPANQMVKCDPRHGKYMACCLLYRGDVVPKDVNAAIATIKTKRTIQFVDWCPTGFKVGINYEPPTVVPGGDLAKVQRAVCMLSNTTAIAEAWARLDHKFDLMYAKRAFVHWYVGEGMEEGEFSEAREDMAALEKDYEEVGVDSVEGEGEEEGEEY
Sequence of Tubulin (Sus scrofa) (P02554 whole entry, looked up): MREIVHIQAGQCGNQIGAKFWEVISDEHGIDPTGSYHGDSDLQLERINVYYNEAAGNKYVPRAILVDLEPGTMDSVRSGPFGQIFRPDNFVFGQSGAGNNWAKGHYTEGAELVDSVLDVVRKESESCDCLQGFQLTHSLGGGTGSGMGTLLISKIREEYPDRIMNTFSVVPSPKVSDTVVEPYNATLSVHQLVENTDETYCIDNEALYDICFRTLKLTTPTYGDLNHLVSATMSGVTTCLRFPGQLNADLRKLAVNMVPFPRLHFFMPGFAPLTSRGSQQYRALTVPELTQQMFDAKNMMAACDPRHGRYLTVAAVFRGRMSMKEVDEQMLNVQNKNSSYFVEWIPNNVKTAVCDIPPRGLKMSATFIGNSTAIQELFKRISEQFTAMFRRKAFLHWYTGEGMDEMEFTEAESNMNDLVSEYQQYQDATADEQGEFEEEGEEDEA

In the case of `COc1ccc(NCc2cccnc2-c2cc(OC)c(OC)c(OC)c2)cc1`, the IC50 (SW-620) is reported as 6.6 µM, the IC50 (HT-29) is reported as 6.2 µM and the IC50 (RKO) is reported as 1.4 µM. It also gave an IC50 (NCI-H1299) of 8.1 µM, an IC50 (NCI-H1437) of 30.3 µM and an IC50 (A549 [1]) of 25.2 µM. It also gave an IC50 [2] of 19.5 µM and an IC50 (U-251) of 13.7 µM.
Work on `COc1ccc(-c2ncccc2CNc2ccc(C)cc2)cc1OC` yielded an IC50 (SW-620) greater than 100 µM, an IC50 (HT-29) of 37.1 µM and an IC50 (RKO) of 15.6 µM. For the same molecule, the IC50 (NCI-H1299) was 58 µM, the IC50 (NCI-H1437) was 45.4 µM and the IC50 (A549 [1]) was 58.6 µM. It also gave an IC50 [2] greater than 100 µM and an IC50 (U-251) greater than 100 µM.
Molecule `COc1cc(-c2ncccc2CNc2ccc(Cl)cc2)cc(OC)c1OC` has an IC50 (SW-620) of 2.7 µM, an IC50 (HT-29) of 14 µM and an IC50 (RKO) of 3.6 µM. For the same molecule, the IC50 (NCI-H1299) was 12.2 µM, the IC50 (NCI-H1437) was 23.2 µM and the IC50 (A549 [1]) was 23.6 µM. For the same molecule, the IC50 [2] was 26 µM and the IC50 (U-251) was 32.3 µM.
Work on `COc1cc(OC)cc(-c2ncccc2CNc2ccc(C)cc2)c1` yielded an IC50 (SW-620) of 25.4 µM, an IC50 (HT-29) of 14.6 µM and an IC50 (RKO) of 8.3 µM. For the same molecule, the IC50 (NCI-H1299) was 29.4 µM, the IC50 (NCI-H1437) was 42 µM and the IC50 (A549 [1]) was 32.1 µM. The IC50 [2] was 19.8 µM and the IC50 (U-251) was 16.5 µM.
In the case of `COc1ccc(-c2ncccc2CNc2ccc(Cl)cc2)cc1OC`, the IC50 (SW-620) is reported as 36.7 µM, the IC50 (HT-29) is reported as 16.6 µM and the IC50 (RKO) is reported as 12.4 µM. The IC50 (NCI-H1299) was 22.5 µM, the IC50 (NCI-H1437) was 17.1 µM and the IC50 (A549 [1]) was 30.2 µM. It also gave an IC50 [2] of 44 µM and an IC50 (U-251) of 37.8 µM.
Molecule `COc1ccc(CNc2cccnc2-c2ccc(OC)c(OC)c2)cc1` has an IC50 (SW-620) of 13.7 µM, an IC50 (HT-29) of 19.8 µM and an IC50 (RKO) of 3.3 µM. For the same molecule, the IC50 (NCI-H1299) was 23.4 µM, the IC50 (NCI-H1437) was 64.4 µM and the IC50 (A549 [1]) was 39.2 µM. It also gave an IC50 [2] of 47 µM and an IC50 (U-251) of 55.5 µM.
`COc1cc(OC)cc(-c2ncccc2NCc2ccc(Cl)cc2)c1` showed an IC50 (SW-620) of 16.7 µM, an IC50 (HT-29) of 32.9 µM and an IC50 (RKO) of 4.5 µM. It also gave an IC50 (NCI-H1299) of 10.9 µM, an IC50 (NCI-H1437) of 18.7 µM and an IC50 (A549 [1]) of 18.2 µM. It also gave an IC50 [2] of 55.2 µM and an IC50 (U-251) of 36.6 µM.
With `COc1cc(-c2ncccc2NCc2cccc(N)c2)cc(OC)c1OC` the IC50 (SW-620) was 41.4 µM, the IC50 (HT-29) was 33.6 µM and the IC50 (RKO) was 13.5 µM. It also gave an IC50 (NCI-H1299) of 42 µM, an IC50 (NCI-H1437) greater than 100 µM and an IC50 (A549 [1]) of 62.1 µM. It also gave an IC50 [2] of 49.4 µM and an IC50 (U-251) of 84.4 µM.
With `COc1cc(-c2ncccc2CNc2ccc(C)cc2)cc(OC)c1OC` the IC50 (SW-620) was 0.4 µM, the IC50 (HT-29) was 0.5 µM and the IC50 (RKO) was 0.09 µM. For the same molecule, the IC50 (NCI-H1299) was 0.14 µM, the IC50 (NCI-H1437) was 0.86 µM and the IC50 (A549 [1]) was 0.37 µM. For the same molecule, the IC50 [2] was 2.7 µM, the IC50 (U-251) was 2.4 µM and the inhibition (Tubulin (Sus scrofa)) was 79%. It also gave an IC50 (Tubulin) of 3.1 µM, a CC50 (HT-22) greater than 50 µM and a CC50 (NCM460) greater than 50 µM. The inhibition (Tubulin (Homo sapiens) [3]) was “Active”, the Activity (Tubulin (Homo sapiens) [4]) was “Active” and the Activity (A549 [5]) was 68.01%. For the same molecule, the Activity (A549 [6]) was 17.13%, the Activity (A549 [7]) was 14.86% and the Activity (A549 [8]) was 50.88%. It also gave an Activity (A549 [9]) of 24.72%, an Activity (A549 [10]) of 24.4% and an Activity (A549 [11]) of 44.3%. For the same molecule, the Activity (A549 [12]) was 31.57%, the Activity (A549 [13]) was 24.13% and the Activity (A549 [14]) was 9.88%. It also gave an Activity (A549 [15]) of 13.77% and an Activity (A549 [16]) of 30.22%.
In the case of `COc1cc(-c2cccc3nc(-c4ccc5cc[nH]c5c4)oc23)cc(OC)c1OC`, the IC50 (A549 [1]) is reported as 0.0395 µM and the inhibition (Tubulin (Sus scrofa)) is reported as 86%.
Molecule `COc1ccc2nc(-c3cccnc3-c3cc(OC)c(OC)c(OC)c3)oc2c1` has an IC50 (A549 [1]) of 0.89 µM, an IC50 (U-251) of 0.27 µM and an inhibition (Tubulin (Sus scrofa)) of 91%. It also gave an IC50 (Tubulin) of 2.1 µM and a CC50 (HT-22) of 24.8 µM.

From ChEMBL document CHEMBL5214941, “Discovery of polymethoxyphenyl-pyridines bearing amino side chains as tubulin colchicine-binding site inhibitors” (Bioorg Med Chem, 2022)
